According to US20250215030A1, “STAT MODULATORS AND USES THEREOF” (Recludix Pharma, Inc., priority 2022, published 2025):

Legend:
pSTAT3 (pY705-STAT3) = molecular target: T1, pSTAT3 (pY705-STAT3) (Homo sapiens, UniProt P40763); test: MSD-pSTAT-PBMC Assay (pSTAT3, IL-6 stimulated); assay type: cell-based; conditions: PBMC, compound 3 hrs, then 10 ng/mL IL-6 for 10 min; MSD pY705-STAT3; read-out: pSTAT3
T1 construct: host or cells: cryopreserved PBMC
In short: (§1)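 Human PBMCs (50,000 cells/well for STAT3, 25,000 for STAT6) treated with compound 3 h, then stimulated 10 min with 10 ng/mL IL-6 or 1 ng/mL IL-4. Lysate pSTAT3 (pY705) or pSTAT6 (pY641) measured by MSD sandwich electrochemiluminescence. Signal minus unstimulated, normalized to DMSO; IC50 by variable-slope nonlinear regression.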

pSTAT6 (pY641-STAT6) = molecular target: T2, pSTAT6 (pY641-STAT6) (Homo sapiens, UniProt P42226); test: MSD-pSTAT-PBMC Assay (pSTAT6, IL-4 stimulated); assay type: cell-based; conditions: compound 3 hrs, then 1 ng/mL IL-4 for 10 min
T2 construct: host or cells: cryopreserved PBMC
T2 sequence (P42226 1-847): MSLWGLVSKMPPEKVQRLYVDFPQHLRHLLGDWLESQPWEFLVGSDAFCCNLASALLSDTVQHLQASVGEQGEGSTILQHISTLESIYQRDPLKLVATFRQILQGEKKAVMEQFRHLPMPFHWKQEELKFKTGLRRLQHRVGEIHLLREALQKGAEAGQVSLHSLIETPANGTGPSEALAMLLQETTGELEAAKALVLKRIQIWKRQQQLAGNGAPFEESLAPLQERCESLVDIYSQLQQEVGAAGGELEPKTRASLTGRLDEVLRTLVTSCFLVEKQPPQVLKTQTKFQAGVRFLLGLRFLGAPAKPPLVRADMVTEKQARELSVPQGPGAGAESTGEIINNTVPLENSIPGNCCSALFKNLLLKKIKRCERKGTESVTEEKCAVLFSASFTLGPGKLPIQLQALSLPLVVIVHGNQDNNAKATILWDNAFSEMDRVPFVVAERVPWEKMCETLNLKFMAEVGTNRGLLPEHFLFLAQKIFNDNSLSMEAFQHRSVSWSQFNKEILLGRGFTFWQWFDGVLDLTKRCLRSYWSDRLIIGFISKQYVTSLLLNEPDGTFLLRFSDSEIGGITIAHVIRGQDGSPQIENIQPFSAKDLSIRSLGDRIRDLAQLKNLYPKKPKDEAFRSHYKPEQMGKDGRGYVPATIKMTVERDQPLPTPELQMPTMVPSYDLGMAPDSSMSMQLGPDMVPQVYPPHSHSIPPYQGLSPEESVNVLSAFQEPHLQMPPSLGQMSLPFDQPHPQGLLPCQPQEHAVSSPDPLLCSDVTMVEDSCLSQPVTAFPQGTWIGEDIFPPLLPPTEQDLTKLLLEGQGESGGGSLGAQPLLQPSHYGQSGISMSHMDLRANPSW
In short: as §1

T1 sequence (P40763 whole entry): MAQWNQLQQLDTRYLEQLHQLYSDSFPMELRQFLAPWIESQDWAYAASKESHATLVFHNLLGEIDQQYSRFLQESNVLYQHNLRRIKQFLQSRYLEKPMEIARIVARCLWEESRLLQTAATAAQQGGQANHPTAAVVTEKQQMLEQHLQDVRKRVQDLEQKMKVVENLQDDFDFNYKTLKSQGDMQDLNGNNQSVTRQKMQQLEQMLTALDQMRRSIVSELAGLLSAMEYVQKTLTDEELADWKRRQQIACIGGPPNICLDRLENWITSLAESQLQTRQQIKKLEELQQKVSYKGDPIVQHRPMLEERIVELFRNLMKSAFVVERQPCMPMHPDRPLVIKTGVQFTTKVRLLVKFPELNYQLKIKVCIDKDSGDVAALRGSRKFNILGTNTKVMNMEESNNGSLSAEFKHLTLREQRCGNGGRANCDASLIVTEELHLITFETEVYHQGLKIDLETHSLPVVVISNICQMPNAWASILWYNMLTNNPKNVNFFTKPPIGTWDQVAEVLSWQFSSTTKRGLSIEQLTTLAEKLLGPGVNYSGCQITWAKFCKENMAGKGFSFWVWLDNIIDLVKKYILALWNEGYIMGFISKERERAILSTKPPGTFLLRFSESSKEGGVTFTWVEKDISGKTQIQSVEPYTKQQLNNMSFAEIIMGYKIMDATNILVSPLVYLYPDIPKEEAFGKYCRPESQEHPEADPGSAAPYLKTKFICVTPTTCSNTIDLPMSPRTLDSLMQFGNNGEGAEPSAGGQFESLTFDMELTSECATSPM

Row | SMILES | IC50 (pSTAT3 (pY705-STAT3)) [µM] | IC50 (pSTAT6 (pY641-STAT6)) [µM]
1 | CC(C)CC(=O)SCCOP(=O)(Oc1ccccc1)C(F)(F)c1ccc2sc(C(=O)N[C@H]3C[C@@H]4C[C@@H]4C[C@H]4CC[C@@H](C(=O)N5CC(C(=O)N6CCOCC6)C5)N4C3=O)cc2c1 (stereo partly drawn) [Compound 185, S-(2-(((difluoro(2-(((3S,6S,7aS, 8aR,9aR)-3-(3-(morpholine-4-carbonyl)azetidine-1-carbonyl)-5-oxodecahydro-1H-cyclopropa[d]pyrrolo[1,2-a]azocin-6-yl)carbamoyl)benzo[b]thiophen-5-yl)methyl) (phenoxy)phosphoryl)oxy)ethyl) 3-methylbutane thioate] | 0.1 to 1 | > 3
2 | CC(C)OC(=O)[C@H](C)NP(=O)(Oc1ccccc1)C(F)(F)c1ccc2sc(C(=O)N[C@H]3C[C@@H]4C[C@@H]4C[C@H]4CC[C@@H](C(=O)N5CC(C(=O)N6CCOCC6)C5)N4C3=O)cc2c1 (stereo partly drawn) [Compound 186, isopropyl ((difluoro(2-(((3S,6S,7aS, 8aR,9aR)-3-(3-(morpholine-4-carbonyl)azetidine-1-carbonyl)-5-oxodecahydro-1H-cyclopropa[d]pyrrolo[1,2-a]azocin-6-yl)carbamoyl)benzo[b]thiophen-5-yl)methyl) (phenoxy)phosphoryl)-L-alaninate] | > 3 | > 3
3 | CC(C)CC(=O)SCCOP(=O)(Oc1ccccc1)C(F)(F)c1ccc2sc(C(=O)N[C@H]3C[C@H]4C[C@H]4C[C@H]4CC[C@@H](C(=O)N5CC(c6cccnc6)C5)N4C3=O)cc2c1 (stereo partly drawn) [Compound 193, S-(2-(((difluoro(2-(((3S,6S,7aR, 8aS,9aR)-5-oxo-3-(3-(pyridin-3-yl)azetidine-1-carbonyl)decahydro-1H-cyclopropa[d]pyrrolo[1,2-a]azocin-6-yl)carbamoyl)benzo[b]thiophen-5-yl)methyl) (phenoxy)phosphoryl)oxy)ethyl) 3-methylbutane thioate] | < 0.1 | > 3
4 | CC(C)(C)C(=O)SCCOP(=O)(Oc1ccccc1)C(F)(F)c1ccc2sc(C(=O)N[C@H]3C[C@H]4C[C@H]4C[C@H]4CC[C@@H](C(=O)N5CC(n6ccnc6)C5)N4C3=O)cc2c1 (stereo partly drawn) [Compound 195, S-(2-((((2-(((3S,6S,7aR, 8aS,9aR)-3-(3-(1H-imidazol-1-yl)azetidine-1-carbonyl)-5-oxodecahydro-1H-cyclopropa[d]pyrrolo[1,2-a]azocin-6-yl)carbamoyl)benzo[b]thiophen-5-yl)difluoromethyl) (phenoxy)phosphoryl)oxy)ethyl) 2,2-dimethyl-propanethioate] | 0.1 to 1 | > 3
5 | CC(C)CC(=O)SCCOP(=O)(Oc1ccccc1)C(F)(F)c1ccc2sc(C(=O)N[C@H]3C[C@H]4C[C@H]4C[C@H]4CC[C@@H](C(=O)N5CC(n6ccnc6)C5)N4C3=O)cc2c1 (stereo partly drawn) [Compound 196, S-(2-((((2-(((3S,6S,7aR, 8aS,9aR)-3-(3-(1H-imidazol-1-yl)azetidine-1-carbonyl)-5-oxodecahydro-1H-cyclopropa[d]pyrrolo[1,2-a]azocin-6-yl)carbamoyl)benzo[b]thiophen-5-yl)difluoromethyl) (phenoxy)phosphoryl)oxy)ethyl) 3-methylbutane thioate] | < 0.1 | > 3
6 | CCCC(=O)SCCOP(=O)(Oc1ccccc1)C(F)(F)c1ccc2sc(C(=O)N[C@H]3C[C@@H]4C[C@@H]4C[C@H]4CC[C@@H](C(=O)N5CC(n6ccnc6)C5)N4C3=O)cc2c1 (stereo partly drawn) [Compound 198, S-(2-((((2-(((3S,6S,7aS, 8aR,9aR)-3-(3-(1H-imidazol-1-yl)azetidine-1-carbonyl)-5-oxodecahydro-1H-cyclopropa[d]pyrrolo[1,2-a]azocin-6-yl)carbamoyl)benzo[b]thiophen-5-yl)difluoromethyl) (phenoxy)phosphoryl)oxy)ethyl) butanethioate] | < 0.1 | 1 to 3

More lines, now with the values ahead:

Row | IC50 (pSTAT3 (pY705-STAT3)) [µM] | IC50 (pSTAT6 (pY641-STAT6)) [µM] | SMILES
7 | < 0.1 | 0.1 to 1 | CC(C)(C)C(=O)OCOP(=O)(OCOC(=O)C(C)(C)C)C(F)(F)c1ccc2sc(C(=O)N[C@H]3C[C@H]4C[C@H]4C[C@H]4CC[C@@H](C(=O)N5CC(c6cccnc6)C5)N4C3=O)cc2c1 [Compound 187, (((difluoro(2-(((3S,6S,7aR, 8aS,9aR)-5-oxo-3-(3-(pyridin-3-yl)azetidine-1-carbonyl)decahydro-1H-cyclopropa[d]pyrrolo[1,2-a]azocin-6-yl)carbamoyl)benzo[b]thiophen-5-yl)methyl)phosphoryl)bis(oxy)) bis(methylene) bis(2,2-dimethyl-propanoate)]
8 | < 0.1 | 0.1 to 1 | CCCC(=O)SCCOP(=O)(OCCSC(=O)CCC)C(F)(F)c1ccc2sc(C(=O)N[C@H]3C[C@@H]4C[C@@H]4C[C@H]4CC[C@@H](C(=O)N5CC(n6ccnc6)C5)N4C3=O)cc2c1 [Compound 188, S,S′-(((((2-(((3S,6S,7aS, 8aR,9aR)-3-(3-(1H-imidazol-1-yl)azetidine-1-carbonyl)-5-oxodecahydro-1H-cyclopropa[d]pyrrolo[1,2-a]azocin-6-yl)carbamoyl)benzo[b]thiophen-5-yl)difluoromethyl)phosphoryl)bis(oxy))bis(ethane-2,1-diyl)) dibutanethioate]
9 | < 0.1 | 1 to 3 | CC(C)OC(=O)OCOP(=O)(OCOC(=O)OC(C)C)C(F)(F)c1ccc2sc(C(=O)N[C@H]3C[C@H]4C[C@H]4C[C@H]4CC[C@@H](C(=O)N5CC(c6cccnc6)C5)N4C3=O)cc2c1 [Compound 189, (((difluoro(2-(((3S,6S,7aR, 8aS,9aR)-5-oxo-3-(3-(pyridin-3-yl)azetidine-1-carbonyl)decahydro-1H-cyclopropa[d]pyrrolo[1,2-a]azocin-6-yl)carbamoyl)benzo[b]thiophen-5-yl)methyl)phosphoryl)bis(oxy)) bis(methylene) diisopropyl bis(carbonate)]
10 | < 0.1 | > 3 | COC1(c2nccn2C)CN(C(=O)[C@@H]2CC[C@@H]3C[C@@H]4C[C@@H]4C[C@H](NC(=O)c4cc5cc(C(F)(F)P(=O)(OCCSC(=O)C(C)(C)C)OCCSC(=O)C(C)(C)C)ccc5s4)C(=O)N32)C1 [Compound 202, S,S′-((((difluoro(2-(((3S,6S,7aR, 8aS,9aR)-3-(3-methoxy-3-(1-methyl-1H-imidazol-2-yl)azetidine-1-carbonyl)-5-oxodecahydro-1H-cyclopropa[d]pyrrolo[1,2-a]azocin-6-yl)carbamoyl)benzo[b]thiophen-5-yl)methyl)phosphoryl)bis(oxy))bis(ethane-2,1-diyl)) bis(2,2-dimethyl-propanethioate)]
11 | < 0.1 | 0.1 to 1 | CC(C)(C)C(=O)OCOP(=O)(OCOC(=O)C(C)(C)C)C(F)(F)c1ccc2sc(C(=O)N[C@H]3C[C@H]4C[C@H]4C[C@H]4CC[C@@H](C(=O)N5CC(c6c[nH]cn6)C5)N4C3=O)cc2c1 [Compound 203, ((((2-(((3S,6S,7aR, 8aS,9aR)-3-(3-(1H-imidazol-4-yl)azetidine-1-carbonyl)-5-oxodecahydro-1H-cyclopropa [d]pyrrolo[1,2-a]azocin-6-yl)carbamoyl)benzo[b]thiophen-5-yl)difluoromethyl)phosphoryl)bis(oxy)) bis(methylene) bis(2,2-dimethyl-propanoate)]
12 | < 0.1 | 0.1 to 1 | CC(C)(C)C(=O)OCOP(=O)(OCOC(=O)C(C)(C)C)C(F)(F)c1ccc2sc(C(=O)N[C@H]3C[C@@H]4C[C@@H]4C[C@H]4CC[C@@H](C(=O)N5CC(N6CCOCC6)C5)N4C3=O)cc2c1 [Compound 204, (((difluoro(2-(((3S,6S,7aS, 8aR,9aR)-3-(3-morpholino-azetidine-1-carbonyl)-5-oxodecahydro-1H-cyclopropa[d]pyrrolo[1,2-a]azocin-6-yl)carbamoyl)benzo[b]thiophen-5-yl)methyl)phosphoryl)bis(oxy)) bis(methylene) bis(2,2-dimethyl-propanoate)]
13 | < 0.1 | 0.1 to 1 | CC(C)(C)C(=O)OCOP(=O)(OCOC(=O)C(C)(C)C)C(F)(F)c1ccc2sc(C(=O)N[C@H]3C[C@@H]4C[C@@H]4C[C@H]4CC[C@@H](C(=O)N5CC(C6CCOCC6)C5)N4C3=O)cc2c1 [Compound 205, (((difluoro(2-(((3S,6S,7aS, 8aR,9aR)-5-oxo-3-(3-(tetrahydro-2H-pyran-4-yl)azetidine-1-carbonyl)decahydro-1H-cyclopropa[d]pyrrolo[1,2-a]azocin-6-yl)carbamoyl)benzo[b]thiophen-5-yl)methyl)phosphoryl)bis(oxy)) bis(methylene) bis(2,2-dimethyl-propanoate)]
